Measurements: publication PMC3340893, “IspE Inhibitors Identified by a Combination of In Silico and In Vitro High-Throughput Screening” (PLoS ONE, 2012)
≈ marks a conversion by molar mass, not a printed value. Like-named read-outs stand apart in the source and are kept apart here. Blank lines part the entries; values can stand above or below the compound they belong to.

Assays:
EcIspE [1] = target: T1, EcIspE (Escherichia coli, UniProt P62615); assay: IspE inhibition assay (Promega Kinase-Glo Plus), IC50 determination; assay type: biochemical; settings: for Ligand efficiency: from IC50 converted to Ki assuming competitive inhibition of the cytidine binding site, KM 150 µM, [CDP-ME] 500 µM, T = 298 K; for fold weaker IC50 / loss in potency compared to the screening hit: relative to parent screening hit (4, 7 or 8); for EcIspE inhibition at 100 µM: typical protein kinase inhibitors evaluated as possible standard inhibitor
T1 construct: made in house
T1 sequence (P62615 whole entry): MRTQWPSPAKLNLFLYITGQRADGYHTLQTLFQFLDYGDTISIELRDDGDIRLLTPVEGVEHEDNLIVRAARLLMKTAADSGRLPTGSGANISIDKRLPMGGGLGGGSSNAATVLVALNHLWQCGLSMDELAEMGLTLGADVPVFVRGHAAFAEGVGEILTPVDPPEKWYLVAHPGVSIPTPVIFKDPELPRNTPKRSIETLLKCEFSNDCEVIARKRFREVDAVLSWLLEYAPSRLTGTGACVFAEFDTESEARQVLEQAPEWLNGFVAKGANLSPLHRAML
Method: Inhibition of EcIspE was measured using the Promega Kinase-Glo®-Plus kit. This kit determines the remaining ATP concentration after the kinase reaction took place by converting luciferin to oxyluciferin via an ATP-dependent luciferase. Oxyluciferin is chemoluminescent and can be detected using a plate reader.
The assay was performed under the following conditions: 90 µM ATP, 500 µM CDP-ME, 200 nM EcIspE in 100 mM Tris-HCl, pH 8.5, 20 mM MgCl2, 2% DMSO, 0.01% (v/v) Triton-X 100. The reaction was carried out in 384-well plates with 25 µl reaction volumes, incubated at 25°C for 180 min, and stopped with 25 µl Kinase-Glo® Plus reagent (Promega, Madison, USA). The chemoluminescence signal was developed for 45 min at room temperature and read out in a plate reader (TopCount, PerkinElmer, USA). To monitor assay performance and to control for inhibition of the luciferase of the Kinase-Glo® Plus kit wells containing either the reaction mixture plus compound 3 or 4 or all ingredients except for CDP-ME were also prepared. Further, as quality control for each assay plate, wells containing the kinase reaction without an inhibitor, and wells containing only ATP in assay buffer were prepared. The signals of these wells were averaged (AVHIGH, AVLOW) and used to calculate the signal to noise ratio (AVHIGH/AVLOW) and Z′ (1− [drawing 1]; SD: standard deviation). The best performance was obtained with an ATP concentration of 90 µM and a CDP-ME concentration of 500 µM (Signal to noise ratio = 3.3, Z′ = 0.69 in assay development). In this setup the ATP and CDP-ME concentrations are ∼0.2×K M and ∼3×K M, respectively. Consequently, the assay can be used to detect ligands binding to both the substrate and co-factor binding sites.
(§1) Compounds were dissolved in DMSO at concentrations between 10 and 200 mM (depending on maximal solubility) and added to the reaction mixture with a final concentration of 2% DMSO (v/v). For compounds where IspE inhibition was indicated, a 1∶3 dilution series in DMSO was prepared and tested in the same endpoint assay. IC50 values were derived by non-linear regression with a 4-parameter fit to the following equation in GraFit (Erithacus Software Ltd., Surrey, UK). [drawing 2] where y: measured signal of assay: ymax: saturated signal: [I]: inhibitor concentration: slope: Hill slope; ymin: background signal of assay.
As the assay was performed at relatively high substrate concentrations (∼3×K M) for ligand efficiency calculations, the measured IC50 values were first converted to K i values.
Ligand efficiencies were calculated using the formula: [drawing 4] where T = 298 K and R = the ideal gas constant.

[2] = Solubility limit in the assay; assay type: physicochemical; settings: EcIspE assay reaction mixture, aqueous buffer, kinetic from dmso stock; highest concentration tested in the EcIspE assay
Description: In the modelled binding mode of ligand 4 the pyrrolopyridine scaffold is sandwiched between Tyr24 and Tyr175 and potentially interacts with His25 via three hydrogen bonds (Figure 12a). In addition, the charged amino group in the tetrahydropyrimidinium ring may form a salt bridge interaction with Asp130. Commercially available analogues of this compound were selected to probe possible interactions with Asp130, His25 and the backbone of Lys145 (Figure 13, Table 4). […] Accordingly, these compounds can no longer form a salt bridge with Asp130. In the predicted binding mode of 12 a neutral hydrogen-bond via the thio-urea group is formed with Asp130 instead while 13 is assumed to interact with Lys9 NZ and Thr171 OG1 (Figure 12c and d). […] In order to accommodate 14 in the binding site in a similar binding mode as 4, structural rearrangements are required to avoid a steric clash of the cyclo-propyl moiety with the backbone carbonyl group of Lys145 (Figure 2). An alternative binding mode for this compound is also possible in which the core is flipped by 180° compared to 4 but still forms hydrogen bonds with His25 (Figure 12b). In this orientation, both substituents are solvent exposed.
as §1

EcIspE [3] = target: T1, EcIspE; design: method as in PMID 18033714, PMID 18633530, PMID 18422643, PMID 17361977, PMID 21903402; settings: substrate-like IspE inhibitors, Figure 4; cited from earlier work
[4] = average of three independent measurements, SD in brackets, 90 µM ATP, 500 µM CDP-ME, 200 nM EcIspE, pH 8.5, n.i. = no inhibition at solubility limit measured, read-out: IC50 [M] (SD)

Compound: Nc1n[nH]c(NCc2cccnc2)n1 [Compound 1]
IC50 (EcIspE [1]; [4]): 0.0018 M
Ligand efficiency (EcIspE [1]): 0.33 kcal/mol per non-hydrogen atom

Compound: CNc1ncc(Br)nc1N [Compound 2]
IC50 (EcIspE [1]; [4]): 0.00059 M
Ligand efficiency (EcIspE [1]): 0.53 kcal/mol per non-hydrogen atom

Compound: Oc1csc(Nc2nccs2)n1 [Compound 3]
Ligand efficiency (EcIspE [1]): 0.50 kcal/mol per non-hydrogen atom
IC50 (EcIspE [1]; read-out: IC50): 0.00016 M

Compound: C1=C(c2c[nH]c3ncccc23)CCNC1 [Compound 4]
IC50 (EcIspE [1]): 0.0015 M
Ligand efficiency (EcIspE [1]): 0.32 kcal/mol per non-hydrogen atom

Compound: Nc1nc(N)c2[nH]c(=O)[nH]c2n1 [Compound 5]
IC50 (EcIspE [1]; [4]): 0.0023 M
Ligand efficiency (EcIspE [1]): 0.37 kcal/mol per non-hydrogen atom

Compound: Nc1cc(-c2ccco2)[nH]n1 [Compound 6]
IC50 (EcIspE [1]; [4]): 0.0035 M
Ligand efficiency (EcIspE [1]): 0.28 kcal/mol per non-hydrogen atom

Compound: Cc1[nH]c2ccccc2c1C(Nc1ccccn1)c1ccccc1O (centres unmarked) [Compound 7]
Ligand efficiency (EcIspE [1]): 0.29 kcal/mol per non-hydrogen atom
IC50 (EcIspE [1]; read-out: IC50): 1.9e-05 M

Compound: O=c1c2ccccc2nc(-c2cccnc2)n1-c1ccc(Br)cn1 [Compound 8]
IC50 (EcIspE [1]): 2.5e-06 M
Ligand efficiency (EcIspE [1]): 0.35 kcal/mol per non-hydrogen atom

Compound: c1csc(NC2CCCCC2)n1 [Compound 9]
IC50 (EcIspE [1]; [4]): 0.0094 M
Ligand efficiency (EcIspE [1]): 0.30 kcal/mol per non-hydrogen atom

Compound: Oc1ccccc1CNc1nccs1 [Compound 10]
IC50 (EcIspE [1]; [4]): 0.0066 M
Ligand efficiency (EcIspE [1]): 0.27 kcal/mol per non-hydrogen atom

Compound: CC(C)Nc1nccs1 [Compound 11]
IC50 (EcIspE [1]; [4]): 0.002 M
Ligand efficiency (EcIspE [1]): 0.50 kcal/mol per non-hydrogen atom

Compound: CNC(=S)N1CC=C(c2c[nH]c3ncccc23)CC1 [Compound 12]
IC50 (EcIspE [1]; [4]): 0.00083 M
Ligand efficiency (EcIspE [1]): 0.27 kcal/mol per non-hydrogen atom

Compound: C1=C(c2c[nH]c3ncccc23)CCN(c2ncccn2)C1 [Compound 13]
IC50 (EcIspE [1]; [4]): 0.00047 M
Ligand efficiency (EcIspE [1]): 0.26 kcal/mol per non-hydrogen atom

Compound: CN1CC=C(c2c(C3CC3)[nH]c3ncccc23)CC1 [Compound 14]
IC50 (EcIspE [1]; [4]): 0.0087 M
Ligand efficiency (EcIspE [1]): 0.19 kcal/mol per non-hydrogen atom
fold weaker IC50 / loss in potency compared to the screening hit (EcIspE [1]): 5.8 fold

solubility [2]: 1000 to 5000 µM
Compound: c1ccc(C[n+]2cccc3cc[nH]c32)cc1 [Compound 15]

solubility [2]: 1000 to 5000 µM (≈ 217 to 1090 µg/mL)
Compound: CC(C)c1cc2cccnc2n1CCCN [Compound 16]

solubility [2]: 1000 to 5000 µM (≈ 232 to 1160 µg/mL)
Compound: CC(C)c1cc2cccnc2n1CCC(=O)O [Compound 17]

Compound: Cc1[nH]c2ccccc2c1C(Nc1ccccn1)c1cccc(Cl)c1 (centres unmarked) [Compound 18]
Ligand efficiency (EcIspE [1]): 0.21 kcal/mol per non-hydrogen atom

Compound: Cc1[nH]c2ccccc2c1C(Nc1ccccn1)c1ccccc1Cl (centres unmarked) [Compound 19]
IC50 (EcIspE [1]; [4]): 0.0024 M
Ligand efficiency (EcIspE [1]): 0.18 kcal/mol per non-hydrogen atom

Compound: Cc1[nH]c2ccccc2c1C(Nc1cccc(Cl)c1)c1ccccn1 (centres unmarked) [Compound 20]
IC50 (EcIspE [1]; [4]): 0.0025 M
Ligand efficiency (EcIspE [1]): 0.18 kcal/mol per non-hydrogen atom
fold weaker IC50 / loss in potency compared to the screening hit (EcIspE [1]): 130 fold

Compound: COc1ccc(-n2c(-c3cccnc3)nc3ccccc3c2=O)cc1 [Compound 21]
IC50 (EcIspE [1]; [4]): 2.7e-05 M
Ligand efficiency (EcIspE [1]): 0.28 kcal/mol per non-hydrogen atom
fold weaker IC50 / loss in potency compared to the screening hit (EcIspE [1]): 11 fold

Compound: O=c1c2ccccc2nc(-c2ccccn2)n1-c1ccccc1 [Compound 22]
IC50 (EcIspE [1]; [4]): 0.00018 M
Ligand efficiency (EcIspE [1]): 0.26 kcal/mol per non-hydrogen atom

Compound: COc1ccc(-n2c(-c3ccncc3)nc3ccccc3c2=O)cc1 [Compound 23]
IC50 (EcIspE [1]; [4]): 0.00032 M
Ligand efficiency (EcIspE [1]): 0.23 kcal/mol per non-hydrogen atom

Compound: Nc1ccn([C@@H]2O[C@H](CNC(=O)Cc3nc4ccccc4[nH]3)[C@@H](O)[C@H]2O)c(=O)n1 [a]
IC50 (EcIspE [3]): 2000 µM

Compound: Nc1ccn([C@@H]2O[C@H](CNC(=O)CCc3nc4ccccc4[nH]3)[C@@H](O)[C@H]2O)c(=O)n1 [b]
IC50 (EcIspE [3]): 2000 µM

Compound: O=C1Cc2c([nH]c3ccc(Br)cc23)-c2ccccc2N1 [kenpaullone, reference compound]
EcIspE inhibition at 100 µM (EcIspE [1]): none of the compounds showed any EcIspE inhibition

Compound: CN[C@@H]1C[C@H]2O[C@@](C)([C@@H]1OC)n1c3ccccc3c3c4c(c5c6ccccc6n2c5c31)C(=O)NC4 [staurosporine, reference compound]
EcIspE inhibition at 100 µM (EcIspE [1]): none of the compounds showed any EcIspE inhibition

Compound: purvalanol [reference compound]
EcIspE inhibition at 100 µM (EcIspE [1]): none of the compounds showed any EcIspE inhibition
